We go through 32 compounds from patent publication US20240400555A1 (Initial Therapeutics, Inc., priority 2023, published 2024).

As usually defined, the IC50 is the concentration that inhibits the measured activity by half.

Structures are written as SMILES.

The subject of one test is MV-4-11 cells. The test can be described thus: Cell Viability Assay in MV-4-11 Cells. Type of test: cell-based. The note with it: Homo sapiens, MV4-11, 72 h. The procedure, abridged:
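Luminescent ATP read-out (CellTiter-Glo) after 72 h compound treatment of MV-4-11 leukaemia cells (7,000 per well, IMDM plus 10% FBS). Values expressed relative to DMSO control and derived by four-parameter non-linear regression.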
`[2H]C([2H])([2H])c1nnc(-c2ccc(C(=O)N(c3nccc4scc(C)c34)[C@@H]3CCCNC3)c(F)c2)s1` [Example 780, 2-fluoro-N-(3-methylthieno[3,2-c]pyridin-4-yl)-N-[(3R)-3-piperidyl]-4-[5-(trideuteriomethyl)-1,3,4-thiadiazol-2-yl] benzamide] displayed an IC50 of 120 nM.

Staying with this test, now noted: Homo sapiens, MV4-11, 72 h, MV-4-11 cells, 72 h, Cell-Titer Glo; read-out: IC50.
As for `Cc1noc(-c2ccc(C(=O)N(c3nccc4cc(Cl)cc(C)c34)[C@@H]3CCCNC3)cc2)n1` [Example 773, (R)—N-(6-chloro-8-methylisoquinolin-1-yl)-4-(3-methyl-1,2,4-oxadiazol-5-yl)-N-(piperidin-3-yl)benzamide], the IC50 was 190 nM.
As to `Cc1nsc(-c2ccc(C(=O)N(c3nccc4cc(F)cc(C)c34)[C@@H]3CCCNC3)cc2)n1` [Example 774, (R)—N-(6-fluoro-8-methylisoquinolin-1-yl)-4-(3-methyl-1,2,4-thiadiazol-5-yl)-N-(piperidin-3-yl)benzamide], the IC50 was 1500 nM.
In the case of `Cc1noc(-c2ccc(C(=O)N(c3nccc4cc(F)cc(C)c34)[C@@H]3CCCNC3)cc2)n1` [Example 775, (R)—N-(6-fluoro-8-methylisoquinolin-1-yl)-4-(3-methyl-1,2,4-oxadiazol-5-yl)-N-(piperidin-3-yl)benzamide], the IC50 is 99 nM.
For the compound `Cc1nnc(-c2ccc(C(=O)N(c3nccc4cc(F)cc(C)c34)[C@@H]3CCCNC3)c(F)c2)o1` [Example 776, (R)-2-fluoro-N-(6-fluoro-8-methylisoquinolin-1-yl)-4-(5-methyl-1,3,4-oxadiazol-2-yl)-N-(piperidin-3-yl)benzamide], the IC50 was 150 nM.
For the compound `Cc1noc(-c2ccc(C(=O)N(c3nccc4scc(C)c34)[C@@H]3CCCNC3)c(C)c2)n1` [Example 777, (R)-2-methyl-4-(3-methyl-1,2,4-oxadiazol-5-yl)-N-(3-methylthieno[3,2-c]pyridin-4-yl)-N-(piperidin-3-yl)benzamide], the IC50 stood at 720 nM.
On to `Cc1noc(-c2ccc(C(=O)N(c3nccc4scc(C)c34)[C@@H]3CCCNC3)c(F)c2)n1` [Example 778, (R)-2-fluoro-4-(3-methyl-1,2,4-oxadiazol-5-yl)-N-(3-methylthieno[3,2-c]pyridin-4-yl)-N-(piperidin-3-yl)benzamide], for which the IC50 worked out at 280 nM.
As to `Cc1nsc(-c2ccc(C(=O)N(c3nccc4scc(C)c34)[C@@H]3CCCNC3)c(F)c2)n1` [Example 779, (R)-2-fluoro-4-(3-methyl-1,2,4-thiadiazol-5-yl)-N-(3-methylthieno[3,2-c]pyridin-4-yl)-N-(piperidin-3-yl)benzamide], the IC50 worked out at 1300 nM.
On to `Cc1nnc(-c2ccc(C(=O)N(c3nccc4scc(C)c34)[C@@H]3CCCNC3)c(F)c2)s1` [Example 781, (R)-2-fluoro-4-(5-methyl-1,3,4-thiadiazol-2-yl)-N-(3-methylthieno[3,2-c]pyridin-4-yl)-N-(piperidin-3-yl)benzamide], for which the IC50 worked out at 130 nM.
The same measure, in the same setting: the same measure for `Cc1csc2ccnc(N(C(=O)c3ccc(-c4nnn(C)c4C)cc3F)[C@@H]3CCCNC3)c12` [Example 782, (R)-4-(1,5-dimethyl-1H-1,2,3-triazol-4-yl)-2-fluoro-N-(3-methylthieno[3,2-c]pyridin-4-yl)-N-(piperidin-3-yl)benzamide]: 120 nM; for `Cc1nnc(-c2ccc(C(=O)N(c3nccc4cccc(C)c34)[C@@H]3CCCNC3)nc2)s1` [Example 783, (R)-5-(5-methyl-1,3,4-thiadiazol-2-yl)-N-(8-methylisoquinolin-1-yl)-N-(piperidin-3-yl)picolinamide]: 180 nM.
As for `Cc1nnc(-c2ccc(C(=O)N(c3nccc4cc(F)cc(C)c34)[C@@H]3CCCNC3)nc2)s1` [Example 784, (R)—N-(6-fluoro-8-methylisoquinolin-1-yl)-5-(5-methyl-1,3,4-thiadiazol-2-yl)-N-(piperidin-3-yl)picolinamide], the IC50 is 290 nM.
For `Cc1cc(F)cc2ccnc(N(C(=O)c3ccc(-c4cn(C)nn4)cn3)[C@@H]3CCCNC3)c12` [Example 785, (R)—N-(6-fluoro-8-methylisoquinolin-1-yl)-5-(1-methyl-1H-1,2,3-triazol-4-yl)-N-(piperidin-3-yl)picolinamide], the IC50 was 230 nM.
With `Cc1cccc2ccnc(N(C(=O)c3ccc(Nc4nccc(NCc5ccccc5)n4)cc3F)[C@@H]3CCCNC3)c12` [Example 786, (R)-4-((4-(benzylamino)pyrimidin-2-yl)amino)-2-fluoro-N-(8-methylisoquinolin-1-yl)-N-(piperidin-3-yl) benzamide], the IC50 was 120 nM.
As to `O=C(c1ccc(Nc2ncc(F)cn2)cc1F)N(c1nccc2cc(F)ccc12)[C@@H]1CCCNC1` [Example 787, (R)-2-fluoro-N-(6-fluoroisoquinolin-1-yl)-4-((5-fluoropyrimidin-2-yl)amino)-N-(piperidin-3-yl)benzamide], the IC50 came to 3000 nM.
Same read-out and setting: the same measure for `Cc1nnc(-c2ccc(C(=O)N(c3nccc4cc(Cl)ccc34)[C@@H]3CCCNC3)c(F)c2)o1` [Example 788, (R)—N-(6-chloroisoquinolin-1-yl)-2-fluoro-4-(5-methyl-1,3,4-oxadiazol-2-yl)-N-(piperidin-3-yl)benzamide]: 970 nM; for `Cc1cccc2ccnc(N(C(=O)c3ccc(-c4nnc(C5CC5)o4)cc3)[C@@H]3CCCNC3)c12` [Example 789, (R)-4-(5-cyclopropyl-1,3,4-oxadiazol-2-yl)-N-(8-methylisoquinolin-1-yl)-N-(piperidin-3-yl)benzamide]: 97 nM.
Take `Cc1cccc2ccnc(N(C(=O)c3ccc(-c4nnc(C5CC5)s4)cc3)[C@@H]3CCCNC3)c12` [Example 790, (R)-4-(5-cyclopropyl-1,3,4-thiadiazol-2-yl)-N-(8-methylisoquinolin-1-yl)-N-(piperidin-3-yl) benzamide]: the IC50 was determined as 240 nM.
Still for that read-out and setting: the result for `CCc1nnc(-c2ccc(C(=O)N(c3nccc4cccc(C)c34)[C@@H]3CCCNC3)cc2)s1` [Example 791, (R)-4-(5-ethyl-1,3,4-thiadiazol-2-yl)-N-(8-methylisoquinolin-1-yl)-N-(piperidin-3-yl) benzamide] reads 140 nM; that for `Cc1nnc(-c2ccc(C(=O)N(c3nccc4cccc(C)c34)[C@@H]3CCCNC3)cc2)s1` [Example 792, (R)-4-(5-methyl-1,3,4-thiadiazol-2-yl)-N-(8-methylisoquinolin-1-yl)-N-(piperidin-3-yl) benzamide], 160 nM.
Regarding `Cc1cc(Cl)cc2ccnc(N(C(=O)c3ccc(Nc4ncccn4)cc3F)[C@@H]3CCCNC3)c12` [Example 793, N-(6-chloro-8-methyl-1-isoquinolyl)-2-fluoro-N-[(3R)-3-piperidyl]-4-(pyrimidin-2-ylamino)benzamide], the IC50 came to 200 nM.
Turning to `O=C(c1ccc(Nc2ncccn2)cc1F)N(c1nccc2cc(Cl)ccc12)[C@@H]1CCCNC1` [Example 794, (R)—N-(6-chloroisoquinolin-1-yl)-2-fluoro-N-(piperidin-3-yl)-4-(pyrimidin-2-ylamino)benzamide], the IC50 turned out to be 1300 nM.
Regarding `Cn1cc(-c2ccc(C(=O)N(c3nccc4scc(Cl)c34)[C@@H]3CCCNC3)c(F)c2)nn1` [Example 795, (R)—N-(3-chlorothieno[3,2-c]pyridin-4-yl)-2-fluoro-4-(1-methyl-1H-1,2,3-triazol-4-yl)-N-(piperidin-3-yl)benzamide], the IC50 was 130 nM.
Consider `Cc1cc(C2CCN(C(=O)N(c3nccc4scc(C)c34)[C@@H]3CCCNC3)CC2)on1` [Example 796, (R)-4-(3-methylisoxazol-5-yl)-N-(3-methylthieno[3,2-c]pyridin-4-yl)-N-(piperidin-3-yl)piperidine-1-carboxamide], for which the IC50 turned out to be 510 nM.
On to `Cc1cc(-c2ccc(C(=O)N(c3nccc4scc(C)c34)[C@@H]3CCCNC3)nc2)on1` [Example 797, (R)-5-(3-methylisoxazol-5-yl)-N-(3-methylthieno[3,2-c]pyridin-4-yl)-N-(piperidin-3-yl)picolinamide], for which the IC50 was determined as 170 nM.
Regarding `Cc1nnc(-c2ccc(C(=O)N(c3nccc4scc(C)c34)[C@@H]3CCCNC3)cc2)s1` [Example 798, (R)-4-(5-methyl-1,3,4-thiadiazol-2-yl)-N-(3-methylthieno[3,2-c]pyridin-4-yl)-N-(piperidin-3-yl)benzamide], the IC50 came out at 82 nM.
On to `Cc1csc2ccnc(N(C(=O)c3ccc(-c4cn(C)nn4)cc3)[C@@H]3CCCNC3)c12` [Example 799, (R)-4-(1-methyl-1H-1,2,3-triazol-4-yl)-N-(3-methylthieno[3,2-c]pyridin-4-yl)-N-(piperidin-3-yl)benzamide], for which the IC50 came to 79 nM.
Still for that read-out and setting: the result for `Cn1cc(-c2ccc(C(=O)N(c3nccc4cccc(Cl)c34)[C@@H]3CCCNC3)cc2)nn1` [Example 800, (R)—N-(8-chloroisoquinolin-1-yl)-4-(1-methyl-1H-1,2,3-triazol-4-yl)-N-(piperidin-3-yl)benzamide] reads 170 nM; that for `Cc1nnc(-c2ccc(C(=O)N(c3nccc4cc(Cl)cc(C)c34)[C@@H]3CCCNC3)nc2)s1` [Example 801, (R)—N-(6-chloro-8-methylisoquinolin-1-yl)-5-(5-methyl-1,3,4-thiadiazol-2-yl)-N-(piperidin-3-yl)picolinamide], 140 nM; that for `Cc1cc(Cl)cc2ccnc(N(C(=O)c3ccc(-c4cn(C)nn4)cc3)[C@@H]3CCCNC3)c12` [Example 802, (R)—N-(6-chloro-8-methylisoquinolin-1-yl)-4-(1-methyl-1H-1,2,3-triazol-4-yl)-N-(piperidin-3-yl)benzamide], 38 nM.
Consider `Cn1cc(-c2ccc(C(=O)N(c3nccc4cc(F)ccc34)[C@@H]3CCCNC3)nc2)nn1` [Example 803, (R)—N-(6-fluoroisoquinolin-1-yl)-5-(1-methyl-1H-1,2,3-triazol-4-yl)-N-(piperidin-3-yl)picolinamide], for which the IC50 is 860 nM.
On to `Cc1nnc(-c2ccc(C(=O)N(c3nccc4cc(F)ccc34)[C@@H]3CCCNC3)cc2)s1` [Example 804, (R)—N-(6-fluoroisoquinolin-1-yl)-4-(5-methyl-1,3,4-thiadiazol-2-yl)-N-(piperidin-3-yl)benzamide], for which the IC50 is 980 nM.
